Results: patent US6359129B1, “Amino acid-derived, 7-membered cyclic sulfamides and methods of synthesizing the same” (University of Kansas, priority 2000, dated 2002)

Assays:
Type in all cases: biochemical
[1] = biological target: Herpes Simplex Virus Protease (Human herpesvirus 1, UniProt P10210); experiment: Inhibition of Herpes Simplex Virus Protease; conditions: compound tested at 200 μmolar
Protocol: The inhibition of Herpes Simplex Virus Protease by the compound shown in Scheme R was determined according to the procedure described by Waxman et al., Antiviral Chemistry and Chemotherapy, 11:1-22 (1999); Qiu et al., Proteases of Infectious Agents, Academic Press, 93-115 (1999); and U.S. Pat. No. 6,008,033, each incorporated by reference herein.
The compound was tested at a concentration of 200 μmolar. [drawing 25]

[2] = biological target: T1, HIV protease (Human immunodeficiency virus type 1 group M subtype B, UniProt P04585); experiment: Inhibition of HIV protease; conditions: compound at 99 μmolar
T1 construct: a key virally encoded protease enzyme of the pol gene
Protocol: The inhibition of HIV protease by the compounds shown in Scheme S (99 μmolar), Scheme T (99 μmolar), and Scheme U (99 μmolar) was determined following the procedure described by Maschera et al., Human Immunodeficiency Virus: Mutations in the Viral Protease that Confer Resistance to Saquinavir Increase the Dissociation Rate Constant for the Protease-Saquinavir Complex, J. Biol. Chem., 271:33231-35 (1996), incorporated by reference herein. [drawing 26] [drawing 27] [drawing 28]

[3] = biological target: T2, human cathepsin K (Homo sapiens, UniProt P43235); experiment: Inhibition of human cathepsin K (fluorogenic peptide assay); conditions: compound at 106 μmolar; pH 5.5, 10 μmolar peptide, 32° C.
T2 sequence (P43235 115-329): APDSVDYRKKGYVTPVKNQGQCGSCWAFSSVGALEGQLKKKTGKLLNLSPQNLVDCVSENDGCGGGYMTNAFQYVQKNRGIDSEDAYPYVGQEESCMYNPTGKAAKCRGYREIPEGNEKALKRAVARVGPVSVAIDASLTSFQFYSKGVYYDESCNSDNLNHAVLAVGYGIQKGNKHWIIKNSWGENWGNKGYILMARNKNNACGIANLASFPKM
Protocol: The inhibition of human cathepsin K by the compounds shown in Schemes V (106 μmolar) and W (106 μmolar) was determined. [drawing 29] [drawing 30]
The peptides utilized were chromophoric Z-Phe-Arg-pNA*HCl and fluorogenic Z-Phe-Arg-AMC (each available from BACHEM Bioscience, Inc.). Stock solutions were prepared with 100% dimethylsulfoxide (DMSO) and stored at −20° C.
The final assay conditions were 100 mM NaOAc, pH of 5.5, 10 mM (R,R)-dithiothreitol (DTT), 10% DMSO, 120 mM NaCl, 10 μmolar of the peptide, and 12.5-0.012 μmolar inhibitor in twofold serial dilutions from 20× stocks in 100% DMSO. The enzyme working solution was a 1:3000 dilution of […] human cathepsin K into 100 mM of NaOAc, pH of 5.5, 10 mM DTT, 1.2 M NaCl.
Serial dilutions were performed in 100% DMSO. Columns 2-12 of an intermediate plate were filled with […] of 100% DMSO and column 1 was filled with […]. Next, […] of a 10 mM solution was added to column 1. […] The fluorescence was monitored every 6 minutes for 72 minutes using a CytoFluor Series 4000 PerSeptive Biosystems multi-well fluorescence plate reader with the following settings: gain=50; 20 reads/well; 32° C.; lex=360±20 nm; and lem=440±20 nm.

Sequence of Herpes Simplex Virus Protease (P10210 1-247): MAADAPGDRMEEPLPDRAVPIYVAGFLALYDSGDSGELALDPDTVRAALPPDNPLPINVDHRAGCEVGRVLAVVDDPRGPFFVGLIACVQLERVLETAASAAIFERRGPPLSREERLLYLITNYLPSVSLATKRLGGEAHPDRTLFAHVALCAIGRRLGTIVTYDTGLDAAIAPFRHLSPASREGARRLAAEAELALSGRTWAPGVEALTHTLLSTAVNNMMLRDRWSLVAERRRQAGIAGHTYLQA

Compound	inhibition at 99 µM [2]	inhibition at 106 µM [3]	other results
COC(=O)C(Cc1ccccc1)N1CC(O)C(O)CN(Cc2ccccc2)S1(=O)=O (stereo not drawn) [Scheme R]	–	–	inhibition at 200 µM [1]: 20.5%
CC(C)CC(COCc1ccccc1)N1CC=CCN(C(COCc2ccccc2)CC(C)C)S1(=O)=O (stereo not drawn) [Scheme S]	96%	–	–
COC(=O)C(Cc1ccccc1)N1CC(O)C(O)CN(C(Cc2ccccc2)C(=O)OC)S1(=O)=O (stereo not drawn) [Scheme T]	22%	–	–
COC(=O)C(Cc1ccccc1)N1CC(O)C(O)CN(Cc2ccccc2)S1(=O)=O (stereo not drawn) [Scheme U]	21%	–	–
CC(C)CC(COCc1ccccc1)N1CC=CCN(C(COCc2ccccc2)CC(C)C)S1(=O)=O (stereo not drawn) [Scheme V]	–	20%	–
CC(C)CC(C(=O)NO)N1CC=CCN(C(CC(C)C)C(=O)NO)S1(=O)=O (stereo not drawn) [Scheme W]	–	14%	–
